Source: patent US20030113312A1, “Skin barrier function and cohesion through enhanced stratum corneum acidification” (The Regents of the University of California, priority 2001, published 2003)
Values joined by “and” are separate entries in the source; they are usually repeats but may differ in a detail not shown here. Equal values may be shown once.

What was measured:
[1] = tested on: desmosomes in the lower stratum corneum; experiment: Desmosome density by microscopy and desmoglein-1 immunostaining; format: in vivo, mouse; settings: for density of desmosomes in lower stratum corneum and at SC-SG interface: inhibitor-treated murine skin vs controls
From the text: Ultrastructural methods: Freshly obtained biopsies from mouse skin were fixed directly in modified Karnovsky's fixative, postfixed with reduced osmium tetroxide (OS04) and then imbedded in an Epon-epoxy mixture. For visualization of lipid-enriched, lamellar bilayer structures, some samples were post fixed in ruthenium tetroxide (RuO4). Sections were cut on a Reichert Ultracut E microtome, counterstained with uranyl acetate and lead citrate, and viewed in a Zeiss 10 CR electron microscope, operated at 60 kV.
Immunofluorescence Staining: Hairless mouse skin was excised with a 6 mm punch biopsy, and the subcutaneous fat was removed. Tissue sections were incubated for 1 hour in blocking buffer (1% bovine serum albumin, 0.1% cold water fish gelatin in phosphate buffered saline (PBS)), and were then incubated for 1 hour further at room temperature with 1:500 dilution of polyclonal rabbit anti-mouse desmoglein 1 antibody (gift of Dr. John Stanley, University of Pennsylvania) diluted in blocking buffer. The tissue was then washed with blocking buffer and incubated one hour at room temperature with floroscien-labeled, isothiocyanate-conjugated, goat anti-rabbit IgG antibody (DAKO, Carpinteria, Calif., USA), diluted in blocking buffer. Either preincubation of DSG 1 antibody with DSG 1-recombinant protein (gift of Dr. Masayuki Amagai, Keio University, Tokyo, Japan), or omission of the DSG 1 primary antibody eliminated specific staining. Tissue sections then were washed with PBS and coverslipped before visualization under confocal microscope (Leica TCS SP, Heidlberg, Germany) using FITC at an excitation wavelength of 494 nm and an emisson wavelength of 518 nm.
To further investigate the changes in stratum corneum cohesion that are brought about by application of secretory phospholipase A2 inhibitors, BPB and MJ33 treated samples of murine skin and the corresponding untreated controls, were assessed by immunohistochemical staining and confocal microscopy. […]

[2] = tested on: hairless mice skin (stratum corneum); experiment: Barrier function by transepidermal water loss (TEWL); format: in vivo, mouse
Method: Animals: Male hairless mice (Skh1/Hr, Charles River Laboratories, Wilmington, Mass.), 8-12 weeks old, were fed Purina mouse diet and water ad libitum. […] Each litter was genotyped separately. Functional experiments were performed on animals aged 6-10 weeks.
The mice were anesthetized with chloral hydrate (Morton Grove Pharmaceuticals, Morton Grove, Ill., USA). After 3 hours immersion at 37° C., the mice were removed, and the remaining buffer was gently blotted off. After 15 minutes, barrier function was determined by measurement of transepidermal water loss (TEWL) with an electrolytic water analyzer (MEECO®, Warrington, Pa.). Surface pH was measured with a flat, glass surface electrode from Mettler-Toledo (Giessen, Germany), attached to a pH meter (Skin pH Meter PH 900, Courage & Khazaka, Cologne, Germany). Individually tested sites were covered with Hilltop Chambers (HtC, nominal volume […]), which were reapplied following each indvidual measurement.

[3] = tested on: hairless mice skin (stratum corneum); experiment: Stratum corneum cohesion: protein removed per D-Squame stripping; format: in vivo, mouse; settings: after three days of inhibitor treatment alone; vehicle about 5
Method: Before stripping the stratum corneum, the skin surface was cleaned with a single ethanol wipe. D-Squame tapes then were placed sequentially to the test areas for about 3 sec each, removed with forceps, and stored in glass scintillation vials at 5° C.
The protein content per stripping was determined with the Bio-Rad protein assay kit. […] Each tape was incubated with 1 M NaOH for 1 hour at 37° C. in an incubator shaker at 80 rpm, and neutralized thereafter with 1 mL of 1 M HCl in the scintillation vials. Subsequently, 0.2 mL of this solution was incubated in 0.6 ml distilled water plus 0.2 mL of the Bio-Rad protein dye for 5 minutes in boroscillate tubes. […] An empty D-Squame tape, as well as distilled water incubated with Bio-Rad dye, served as negative controls. The amount of calculated protein was then normalized to skin surface area (μg/cm^2).

Murine skin = settings: 4 mg/mL topical in propylene glycol:ethanol; cited from earlier work
[4] = tested on: hairless mice skin (stratum corneum); experiment: Stratum corneum integrity: TEWL after sequential tape stripping; format: in vivo, mouse
Method: The mice were anesthetized with chloral hydrate (Morton Grove Pharmaceuticals, Morton Grove, Ill., USA). […] After 15 minutes, barrier function was determined by measurement of transepidermal water loss (TEWL) with an electrolytic water analyzer (MEECO®, Warrington, Pa.). […] Individually tested sites were covered with Hilltop Chambers (HtC, nominal volume 200 mL), which were reapplied following each indvidual measurement.
The stratum corneum was removed by several strippings with adhesive tape (Tesa, Beiersdorf, Germany) inducing an increase in TEWL rates above baseline (from 0.2 to approximately 7-9 g/m^2/h). Two sites were prepared on each animal, and TEWL and surface pH were measured at 0, 2, 5 and 24 hrs following the stripping and the applications of inhibitors.

[5] = tested on: hairless mice skin (stratum corneum); experiment: Skin surface pH after topical treatment or buffer exposure; format: in vivo, mouse; settings: for pH of the stratum corneum: BPB alone, three days
Method: Animals: Male hairless mice (Skh1/Hr, Charles River Laboratories, Wilmington, Mass.), 8-12 weeks old, were fed Purina mouse diet and water ad libitum. […] Functional experiments were performed on animals aged 6-10 weeks.
The mice were anesthetized with chloral hydrate (Morton Grove Pharmaceuticals, Morton Grove, Ill., USA). After 3 hours immersion at 37° C., the mice were removed, and the remaining buffer was gently blotted off. After 15 minutes, barrier function was determined by measurement of transepidermal water loss (TEWL) with an electrolytic water analyzer (MEECO®, Warrington, Pa.). Surface pH was measured with a flat, glass surface electrode from Mettler-Toledo (Giessen, Germany), attached to a pH meter (Skin pH Meter PH 900, Courage & Khazaka, Cologne, Germany). Individually tested sites were covered with Hilltop Chambers (HtC, nominal volume 200 mL), which were reapplied following each indvidual measurement.

O=C(CBr)c1ccc(Br)cc1 [BPB, bromphenacyl bromide]
density of desmosomes in lower stratum corneum and at SC-SG interface [1]: dramatic reduction | density of DSG1 positive clusters ([1]; laser confocal microscopy, treated vs vehicle stratum corneum): decline dramatically | TEWL rate ([2]; 4 mg/mL topical twice daily, day 2, vehicle closer to 2.5): ~6 g/m^2/h | TEWL rate ([2]; 4 mg/mL topical twice daily, day three, vehicle near 3): ~11 g/m^2/h | protein removed, first D-Squame strip [3]: about 20 μg/cm^2 | toxicity of the dose employed to Murine skin (Murine skin): non-toxic | TEWL rate after fifth tape strip ([4]; after three days of inhibitor treatment alone, vehicle close to 25): ~90 g/m^2/h and 80-100 g/m^2/h | TEWL rate after second tape strip ([4]; after three days of inhibitor treatment alone, vehicle closer to 5): ~20 g/m^2/h | pH of the stratum corneum ([5]; comparator of the linoleic acid co-application): 6.28+/−0.1 | pH of the stratum corneum ([5]; comparator of the palmitic acid co-application): 5.92+/−0.05 | pH of the stratum corneum ([5]; comparator of the stearic acid co-application): 6.17+/−0.08 | pH of the skin ([5]; hairless mice, 4 mg/mL topical twice daily, after one day, starting value about pH 5.6): ~6.0 pH | final average pH of treated sites ([5]; hairless mice, 4 mg/mL topical twice daily, day 3, vehicle close to pH 5.4): ~6.4 pH

CCCCCCCCCCCCCCCCOCC(COCC(F)(F)F)OP(=O)(O)OC (stereo not shown) [MJ33, One-hexadecyl-3-triflouroethylglycero-sn-2-phosphomethanol]
density of desmosomes in lower stratum corneum and at SC-SG interface [1]: dramatic reduction | fold increase in TEWL rates ([2]; by day three, vs vehicle): 2-3 fold | TEWL rate ([2]; repeated applications, day three, vs vehicle 2.97+/-0.16, p<0.001): 5.19+/−0.81 | toxicity of the dose employed to Murine skin (Murine skin): non-toxic | TEWL rate after three consecutive tape strips ([4]; day 3 of inhibitor treatment alone, vehicle closer to 40): ~75 g/m^2/h | stratum corneum surface pH ([5]; MJ33 4 mg/mL topical, vs vehicle 5.60+/-0.05, p=0.0023): 5.87+/−0.06
